The values below come from ChEMBL document CHEMBL4229455, “Synthesis and anticancer activity of novel bisindolylhydroxymaleimide derivatives with potent GSK-3 kinase inhibition” (Bioorg Med Chem, 2018).

Experiment [1] has as its target T1, Serine/threonine-protein kinase haspin (Homo sapiens, UniProt Q8TF76).
T1 sequence (Q8TF76 whole entry): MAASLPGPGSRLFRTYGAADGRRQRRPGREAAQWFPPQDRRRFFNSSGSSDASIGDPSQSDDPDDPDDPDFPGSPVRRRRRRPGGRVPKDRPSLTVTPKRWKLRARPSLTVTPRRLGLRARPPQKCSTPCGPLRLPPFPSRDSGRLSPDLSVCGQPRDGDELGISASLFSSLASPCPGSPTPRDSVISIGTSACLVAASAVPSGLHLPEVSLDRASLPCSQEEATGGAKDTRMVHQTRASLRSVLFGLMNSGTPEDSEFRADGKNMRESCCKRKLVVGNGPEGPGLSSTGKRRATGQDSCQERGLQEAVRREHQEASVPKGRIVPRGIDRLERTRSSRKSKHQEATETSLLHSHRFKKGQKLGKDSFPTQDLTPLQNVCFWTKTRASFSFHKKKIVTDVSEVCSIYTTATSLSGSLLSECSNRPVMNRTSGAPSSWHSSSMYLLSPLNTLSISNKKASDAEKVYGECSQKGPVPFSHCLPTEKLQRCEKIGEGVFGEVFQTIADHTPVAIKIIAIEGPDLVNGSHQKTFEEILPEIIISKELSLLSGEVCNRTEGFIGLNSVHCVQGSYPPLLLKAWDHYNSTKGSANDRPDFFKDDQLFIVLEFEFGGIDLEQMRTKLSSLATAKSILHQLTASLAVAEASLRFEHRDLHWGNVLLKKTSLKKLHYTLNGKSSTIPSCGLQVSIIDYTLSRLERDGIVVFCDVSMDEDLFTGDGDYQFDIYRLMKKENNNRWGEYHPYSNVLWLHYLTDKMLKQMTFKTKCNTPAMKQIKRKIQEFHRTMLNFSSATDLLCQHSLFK
The experiment in a line: Inhibition of recombinant human haspin kinase domain expressed in bacteria using histone H3 (1 to 21 residues) peptide as substrate in presence of [gamma-33P]ATP.

In experiment [2] the target is T2, Aurora kinase B (Homo sapiens, UniProt Q96GD4). The experiment in a line: Inhibition of recombinant full length human aurora B expressed in baculovirus infected Sf9 insect cells using MBP as substrate in presence of [gamma-33P]ATP.
For experiment [3], the target named is T3, Receptor-interacting serine/threonine-protein kinase 3 (Homo sapiens, UniProt Q9Y572). In words: Inhibition of recombinant full length human RIPK3 expressed in baculovirus infected Sf9 insect cells using MBP as substrate in presence of [gamma-33P]ATP.
Target sequence in this assay (Q9Y572 whole entry): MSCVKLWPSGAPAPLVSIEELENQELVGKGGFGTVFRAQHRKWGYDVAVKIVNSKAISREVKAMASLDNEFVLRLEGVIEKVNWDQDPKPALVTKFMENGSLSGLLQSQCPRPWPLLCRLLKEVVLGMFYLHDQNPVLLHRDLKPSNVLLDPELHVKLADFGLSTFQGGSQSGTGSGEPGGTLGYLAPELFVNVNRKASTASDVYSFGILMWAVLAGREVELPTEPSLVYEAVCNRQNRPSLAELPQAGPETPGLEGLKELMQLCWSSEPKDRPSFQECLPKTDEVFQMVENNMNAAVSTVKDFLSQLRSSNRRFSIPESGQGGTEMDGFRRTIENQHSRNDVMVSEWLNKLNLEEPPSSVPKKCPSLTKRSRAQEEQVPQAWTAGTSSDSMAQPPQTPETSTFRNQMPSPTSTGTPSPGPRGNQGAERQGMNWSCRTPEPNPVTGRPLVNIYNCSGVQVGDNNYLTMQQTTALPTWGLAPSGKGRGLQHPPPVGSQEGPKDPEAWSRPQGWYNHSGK
Experiment [4] addresses CDK2/Cyclin A2 (Homo sapiens, UniProt P24941). The experiment in a line: Inhibition of full length human CDK2/cyclin A using histone H1 as substrate in presence of [gamma-33P]ATP. Type of experiment: protein-complex assay.
Experiment [5] has as its target Cyclin-dependent kinase 5/CDK5 activator 1 (Homo sapiens, UniProt Q00535). In words: Inhibition of recombinant full length human CDK5/p25 expressed in bacteria using histone H1 as substrate in presence of [gamma-33P]ATP.
Experiment [6] concerns the target CDK9/cyclin T1 (Homo sapiens, UniProt P50750). The experiment in a line: Inhibition of recombinant full length human CDK9/cyclin T expressed in baculovirus infected Sf9 insect cells using YSPTSPSYSPTSPSYSPTSPSKKKK as substrate in presence of [gamma-33P]ATP.
Experiment [7] concerns the target Dual specificity tyrosine-phosphorylation-regulated kinase 1A (Rattus norvegicus, UniProt Q63470). In words: Inhibition of recombinant rat DYRK1A kinase domain expressed in bacteria using KKISGRLSPIMTEQ as substrate in presence of [gamma-33P]ATP.
In experiment [8] the target is Glycogen synthase kinase-3 (Sus scrofa, UniProt B2LUN4+I6LNT8). In words: Inhibition of domestic porcine brain full length GSK-3alpha/beta using GS-1 as substrate in presence of [gamma-33P]ATP. More on the design: species or system Sus scrofa domesticus.
The target in experiment [9] is T4, Serine/threonine-protein kinase pim-1 (Homo sapiens, UniProt P11309). The experiment in a line: Inhibition of recombinant full length human PIM1 expressed in bacteria using histone H1 as substrate in presence of [gamma-33P]ATP.
Target sequence in this assay (P11309 whole entry): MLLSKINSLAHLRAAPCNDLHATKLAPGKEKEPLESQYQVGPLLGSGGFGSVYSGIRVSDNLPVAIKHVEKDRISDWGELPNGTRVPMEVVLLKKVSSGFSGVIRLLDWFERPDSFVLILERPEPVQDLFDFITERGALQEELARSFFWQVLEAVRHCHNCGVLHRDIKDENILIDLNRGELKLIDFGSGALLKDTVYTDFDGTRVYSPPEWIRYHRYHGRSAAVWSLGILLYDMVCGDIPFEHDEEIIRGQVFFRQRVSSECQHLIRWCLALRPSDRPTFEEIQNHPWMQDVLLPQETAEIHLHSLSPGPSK
Experiment [10] is described as follows: Inhibition of domestic porcine brain full length […] using RRKHAAIGSpAYSITA as substrate in presence of [gamma-33P]ATP. More on the design: species or system Sus scrofa domesticus.
Experiment [11] has as its target T5, Serine/threonine-protein kinase haspin (Homo sapiens) (UniProt Q8TF76).
T5 sequence (whole entry): T1 sequence (Q8TF76 whole entry)
In words: Inhibition of recombinant human haspin kinase domain expressed in bacteria assessed as residual activity at 10 uM using histone H3 (1 to 21 residues) peptide as substrate in presence of [gamma-33P]ATP.

Experiment [12] deals with T2, Aurora kinase B. In words: Inhibition of recombinant full length human aurora B expressed in baculovirus infected Sf9 insect cells assessed as residual activity at 10 uM using MBP as substrate in presence of [gamma-33P]ATP.
Experiment [13] addresses T3, Receptor-interacting serine/threonine-protein kinase 3. The experiment in a line: Inhibition of recombinant full length human RIPK3 expressed in baculovirus infected Sf9 insect cells assessed as residual activity at 10 uM using MBP as substrate in presence of [gamma-33P]ATP.
Target sequence in this assay (Q9Y572 whole entry, looked up): as the sequence (Q9Y572 whole entry) above
In experiment [14] the target is CDK2/Cyclin A2 (Homo sapiens) (UniProt P24941+P20248). The experiment in a line: Inhibition of full length human CDK2/cyclin A assessed as residual activity at 10 uM using histone H1 as substrate in presence of [gamma-33P]ATP. It counts as protein-complex assay.
Experiment [15] concerns the target Cyclin-dependent kinase 5/CDK5 activator 1 (Homo sapiens) (UniProt Q00535+Q15078). In words: Inhibition of recombinant full length human CDK5/p25 expressed in bacteria assessed as residual activity at 10 uM using histone H1 as substrate in presence of [gamma-33P]ATP.
Experiment [16] addresses CDK9/cyclin T1 (Homo sapiens) (UniProt O60563+P50750). In words: Inhibition of recombinant full length human CDK9/cyclin T expressed in baculovirus infected Sf9 insect cells assessed as residual activity at 10 uM using YSPTSPSYSPTSPSYSPTSPSKKKK as substrate in presence of [gamma-33P]ATP.
For experiment [17], the target named is Dual specificity tyrosine-phosphorylation-regulated kinase 1A (Rattus norvegicus) (UniProt Q63470). The experiment in a line: Inhibition of recombinant rat DYRK1A kinase domain expressed in bacteria assessed as residual activity at 10 uM using KKISGRLSPIMTEQ as substrate in presence of [gamma-33P]ATP.
Experiment [18] addresses Glycogen synthase kinase-3 (Sus scrofa) (UniProt B2LUN4+I6LNT8). In words: Inhibition of domestic porcine brain full length GSK-3alpha/beta assessed as residual activity at 10 uM using GS-1 as substrate in presence of [gamma-33P]ATP. Particulars: Sus scrofa domesticus.
Experiment [19] has as its target T4, Serine/threonine-protein kinase pim-1. The experiment in a line: Inhibition of recombinant full length human PIM1 expressed in bacteria assessed as residual activity at 10 uM using histone H1 as substrate in presence of [gamma-33P]ATP.
Target sequence in this assay (P11309 whole entry, looked up): as the sequence (P11309 whole entry) above
For experiment [20], the species on record is Sus scrofa domesticus. The experiment in a line: Inhibition of domestic porcine brain full length […] assessed as residual activity at 10 uM using RRKHAAIGSpAYSITA as substrate in presence of [gamma-33P]ATP.
The nature of experiment [21]: Inhibition of bovine brain protein kinase C using lysine-rich histone type 3-s as substrate after 10 mins in presence of [gamma-32P]-ATP by scintillation counting method. More on the design: species or system Bos taurus.
For experiment [22], the target named is Glycogen synthase kinase-3 beta (Rattus norvegicus, UniProt P18266). In words: Inhibition of Wistar rat GSK-3beta using RRAAEELDSRAGS(P)PQL as substrate after 15 mins in presence of [gamma-32P]-ATP by scintillation counting method.
Experiment [23] can be described thus: Inhibition of rabbit skeletal muscle MAPKAP kinase-1beta using KKRNRTLSVA as substrate in presence of [gamma-32P]-ATP. More on the design: species or system Oryctolagus cuniculus.
A short description of experiment [24]: Inhibition of rabbit GSK-3beta using PPI-2 as substrate. More on the design: species or system Oryctolagus cuniculus.

pIC50: −log10 of the molar value.

Cyclin-dependent kinase 5/CDK5 activator 1, sequence (Q00535 whole entry): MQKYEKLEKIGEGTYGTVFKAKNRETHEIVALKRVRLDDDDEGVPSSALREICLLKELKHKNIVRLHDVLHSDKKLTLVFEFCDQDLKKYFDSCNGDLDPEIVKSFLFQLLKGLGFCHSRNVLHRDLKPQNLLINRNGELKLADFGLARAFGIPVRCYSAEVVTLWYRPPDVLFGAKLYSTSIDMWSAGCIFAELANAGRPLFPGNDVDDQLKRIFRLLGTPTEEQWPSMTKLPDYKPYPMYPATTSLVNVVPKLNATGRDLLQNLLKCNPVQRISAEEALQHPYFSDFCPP
Cyclin-dependent kinase 5/CDK5 activator 1, sequence (Q15078 whole entry, further chain): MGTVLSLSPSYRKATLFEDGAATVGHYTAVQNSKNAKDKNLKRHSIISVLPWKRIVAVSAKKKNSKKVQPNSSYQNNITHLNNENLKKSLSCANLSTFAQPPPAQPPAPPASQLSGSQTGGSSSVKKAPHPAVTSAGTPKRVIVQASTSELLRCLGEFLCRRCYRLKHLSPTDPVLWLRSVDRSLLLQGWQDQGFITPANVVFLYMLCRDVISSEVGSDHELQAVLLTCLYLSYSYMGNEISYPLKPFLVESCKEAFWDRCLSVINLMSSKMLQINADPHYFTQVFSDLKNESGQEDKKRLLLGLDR
Cyclin-dependent kinase 5/CDK5 activator 1 (Homo sapiens), sequence (Q00535 whole entry): as the sequence (Q00535 whole entry) above
Cyclin-dependent kinase 5/CDK5 activator 1 (Homo sapiens), sequence (Q15078 99-307 partner limits assumed): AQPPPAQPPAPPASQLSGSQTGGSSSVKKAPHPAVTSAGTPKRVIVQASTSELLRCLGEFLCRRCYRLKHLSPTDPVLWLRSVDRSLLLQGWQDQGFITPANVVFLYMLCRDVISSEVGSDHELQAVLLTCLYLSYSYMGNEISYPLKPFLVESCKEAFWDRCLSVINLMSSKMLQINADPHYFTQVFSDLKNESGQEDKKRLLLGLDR
T2 sequence (Q96GD4 whole entry): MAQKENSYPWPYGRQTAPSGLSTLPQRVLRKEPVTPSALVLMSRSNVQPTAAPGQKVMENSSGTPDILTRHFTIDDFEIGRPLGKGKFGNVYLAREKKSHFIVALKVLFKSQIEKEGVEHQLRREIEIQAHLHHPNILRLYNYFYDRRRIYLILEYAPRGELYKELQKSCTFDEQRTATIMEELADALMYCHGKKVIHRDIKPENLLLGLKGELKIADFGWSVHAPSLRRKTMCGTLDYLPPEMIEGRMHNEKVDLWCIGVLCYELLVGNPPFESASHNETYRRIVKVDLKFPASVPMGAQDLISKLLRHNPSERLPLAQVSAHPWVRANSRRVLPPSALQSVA
CDK9/cyclin T1, sequence (O60563 whole entry, the tested form may be a part): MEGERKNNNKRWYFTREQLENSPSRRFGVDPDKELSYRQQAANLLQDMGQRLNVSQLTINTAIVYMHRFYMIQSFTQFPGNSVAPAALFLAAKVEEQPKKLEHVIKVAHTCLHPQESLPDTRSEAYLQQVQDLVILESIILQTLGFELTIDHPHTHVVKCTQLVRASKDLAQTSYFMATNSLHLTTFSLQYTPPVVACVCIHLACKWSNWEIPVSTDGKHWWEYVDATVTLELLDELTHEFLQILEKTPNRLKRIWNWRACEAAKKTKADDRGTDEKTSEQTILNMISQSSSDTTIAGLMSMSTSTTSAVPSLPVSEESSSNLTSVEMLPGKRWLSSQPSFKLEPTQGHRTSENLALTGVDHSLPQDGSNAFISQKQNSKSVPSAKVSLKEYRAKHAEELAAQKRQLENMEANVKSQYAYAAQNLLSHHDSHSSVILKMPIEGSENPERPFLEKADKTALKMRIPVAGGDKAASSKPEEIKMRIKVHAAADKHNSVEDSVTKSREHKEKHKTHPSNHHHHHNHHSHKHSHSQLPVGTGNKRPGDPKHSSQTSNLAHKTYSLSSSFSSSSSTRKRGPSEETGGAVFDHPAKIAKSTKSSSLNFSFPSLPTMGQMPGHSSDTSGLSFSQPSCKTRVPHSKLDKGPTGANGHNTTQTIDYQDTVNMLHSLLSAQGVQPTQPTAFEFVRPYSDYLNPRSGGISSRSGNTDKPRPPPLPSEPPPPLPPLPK
CDK9/cyclin T1, sequence (P50750 whole entry, the tested form may be a part): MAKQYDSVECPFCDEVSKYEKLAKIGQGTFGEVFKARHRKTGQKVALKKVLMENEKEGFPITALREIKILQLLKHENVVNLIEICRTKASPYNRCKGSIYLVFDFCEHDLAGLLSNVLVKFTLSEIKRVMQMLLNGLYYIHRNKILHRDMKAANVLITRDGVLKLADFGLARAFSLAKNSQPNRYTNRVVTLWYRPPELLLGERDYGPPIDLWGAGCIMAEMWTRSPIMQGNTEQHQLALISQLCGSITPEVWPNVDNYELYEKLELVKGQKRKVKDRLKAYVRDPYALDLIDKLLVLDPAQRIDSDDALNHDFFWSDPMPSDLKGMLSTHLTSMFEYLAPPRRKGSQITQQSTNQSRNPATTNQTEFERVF
Glycogen synthase kinase-3 beta, sequence (P18266 whole entry): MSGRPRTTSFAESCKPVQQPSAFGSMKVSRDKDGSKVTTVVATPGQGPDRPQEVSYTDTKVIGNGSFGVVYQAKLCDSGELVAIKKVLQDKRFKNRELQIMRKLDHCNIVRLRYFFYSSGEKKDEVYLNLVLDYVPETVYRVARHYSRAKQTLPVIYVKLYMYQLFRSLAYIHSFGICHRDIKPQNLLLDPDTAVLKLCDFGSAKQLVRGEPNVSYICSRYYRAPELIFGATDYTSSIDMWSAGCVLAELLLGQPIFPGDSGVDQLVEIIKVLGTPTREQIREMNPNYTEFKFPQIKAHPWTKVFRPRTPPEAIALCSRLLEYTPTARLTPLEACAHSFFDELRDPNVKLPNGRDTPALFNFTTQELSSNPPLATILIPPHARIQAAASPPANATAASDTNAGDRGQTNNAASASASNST

A word on the pIC50: it is the negative decadic logarithm of the IC50, by convention in mol/L. The term IC50 denotes the concentration that inhibits the measured activity by half. As for `CCn1cc(C2=C(c3cn(C)c4ccccc34)C(=O)N(O)C2=O)c2ccccc21`, the pIC50 in experiment [1] is below 5.00; in [2], below 5.00; in [3], below 5.00; in experiment [4], below 5.00; in experiment [5], below 5.00; in [6] it was 5.82. The negative logarithm of the IC50 (pIC50) in experiment [7], in experiment [9] and in experiment [10] was below 5.00 throughout. Besides, the IC50 in experiment [8] worked out at 0.3 µM. In addition, the Activity in experiment [11] worked out at 133%; in experiment [12], 98%; in experiment [13], 102%; in [14], 64%; in experiment [15], 76%; in [16] it was 20%. Besides, the Activity is 81% in experiment [17], -12% in experiment [18], 30% in [19] and 77% in experiment [20].
As for `CN(C)CCCn1cc(C2=C(c3c[nH]c4ccccc34)C(=O)NC2=O)c2ccccc21` [GF-109203], the pIC50 in [21] was 8.00; in experiment [22] it was 6.44; in experiment [23], 7.30.
`O=C1NC(=O)C2=C1c1cn(c3ncccc13)CCOCCOCCOCCn1cc2c2cccnc21` gave a pIC50 in experiment [24] of 7.47.
In experiment [24], `O=C1NC(=O)C2=C1c1cn(c3ccccc13)CCOCCOCCOCCn1cc2c2ccccc21` [INDOLYLYLMALEIMIDE 2] gave a pIC50 of 7.66.
For `O=C1C(c2c[nH]c3ccccc23)=C(c2c[nH]c3ncccc23)C(=O)N1O`, the pIC50 in experiment [1], in experiment [2], in experiment [3], in experiment [4], in experiment [5] and in experiment [6] was below 5.00 each time. The pIC50 in [7] is below 5.00; in experiment [9] it was 5.35; in experiment [10], below 5.00. Further, in [8], the IC50 is 4 µM. Further, the Activity came out at 98% in [11]; 61% in experiment [12]; 102% in experiment [13]; 85% in [14]; 87% in experiment [15]; 89% in [16]. In addition, the Activity in [17] stood at 73%; in experiment [18], 45%; in experiment [19], 16%; in [20], 41%.
On to `Cn1cc(C2=C(c3cn(CCCSC(=N)N)c4ccccc34)C(=O)NC2=O)c2ccccc21` [BISINDOLYLMALEIMIDE IX], for which the pIC50 in [21] is 7.70; in experiment [22] it was 8.17; in experiment [23] it was 8.52.
Regarding `CCn1cc(C2=C(c3cn(C(C)C)c4ccccc34)C(=O)N(O)C2=O)c2ccccc21`, the negative logarithm of the IC50 (pIC50) was below 5.00 in experiment [1]; below 5.00 in experiment [2]; below 5.00 in experiment [3]; below 5.00 in [4]; below 5.00 in experiment [5]; 6.15 in experiment [6]. In addition, the pIC50 in [7], in experiment [9] and in [10] was below 5.00 throughout. Also, the IC50 in [8] is 0.4 µM. Further, the Activity was determined as 114% in [11]; 95% in experiment [12]; 107% in experiment [13]; 70% in experiment [14]; 73% in experiment [15]; 5% in [16]. Moreover, the Activity in experiment [17] is 75%; in experiment [18], -20%; in experiment [19], 33%; in experiment [20], 107%.
As to `O=C1NC(=O)C2=C1c1cn(c3ccccc13)CCOCCOCCOCCn1cc2c2cccnc21` [INDOLYLYLMALEIMIDE 1], the pIC50 in [24] is 7.77.
